Among the data in publication PMC10875103, “Selective synthesis of rebaudioside M2 through structure-guided engineering of glycosyltransferase UGT94D1” (Frontiers in Bioengineering and Biotechnology, 2024) are relative activity values, retold here.

The target in the experiment is T1, UGT94D1 (Sesamum indicum, UniProt A0A6I9T8N3, F119I/D188P).
T1 construct: gene LOC105161042; full ORF, synthetic codon-optimised gene; Ni-NTA purified and desalted
The experiment in a line: UPLC glucosylation assay, […] h turnover. The class given is biochemical. The settings on record: 0.5 mM Reb D, 5 mM UDPG, 10 mM MnCl2, 50 mM Tris-HCl pH 8.0, 35 °C.

T1 sequence (A0A6I9T8N3 entry or part of it F119I/D188P): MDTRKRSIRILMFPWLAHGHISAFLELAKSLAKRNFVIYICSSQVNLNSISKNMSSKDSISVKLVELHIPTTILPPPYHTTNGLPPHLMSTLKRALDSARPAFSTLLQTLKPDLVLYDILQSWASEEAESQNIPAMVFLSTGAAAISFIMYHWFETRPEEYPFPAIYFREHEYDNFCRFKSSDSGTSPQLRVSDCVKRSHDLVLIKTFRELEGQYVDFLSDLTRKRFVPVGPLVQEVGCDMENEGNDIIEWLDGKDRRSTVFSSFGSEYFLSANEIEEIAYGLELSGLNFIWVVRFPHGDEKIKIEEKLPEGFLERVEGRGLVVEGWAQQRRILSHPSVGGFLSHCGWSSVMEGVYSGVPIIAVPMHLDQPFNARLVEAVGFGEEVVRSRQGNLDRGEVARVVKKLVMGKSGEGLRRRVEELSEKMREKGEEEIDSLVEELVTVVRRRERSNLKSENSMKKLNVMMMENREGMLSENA

On to `C=C1C[C@@]23CC[C@H]4[C@@](C)(CCC[C@@]4(C)C(=O)O[C@@H]4O[C@H](CO)[C@@H](O)[C@H](O)[C@H]4O[C@@H]4O[C@H](CO)[C@@H](O)[C@H](O)[C@H]4O)[C@@H]2CC[C@]1(O[C@@H]1O[C@H](CO)[C@@H](O)[C@H](O[C@@H]2O[C@H](CO)[C@@H](O)[C@H](O)[C@H]2O)[C@H]1O[C@@H]1O[C@H](CO)[C@@H](O)[C@H](O)[C@H]1O)C3` [rebaudioside D], for which the relative activity result was “catalytic activities of mutants F119I/D188P and F119P/D188P were further improved”.
